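How tested: cells in 96-well plates exposed to compound for 48 hours at five concentrations. Abbreviation: GI50, concentration required for 50% inhibition of growth.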 Calls of active or inactive are those of the source. Rule as the data show it: active = GI50 up to about 1.1 µM and inactive = higher.
Key:
Assay in all cases: NCI anticancer screen, dose series, 48 h
[1] = system: K562
[2] = system: SF-268
[3] = system: PC-3
[4] = system: OVCAR-4
[5] = system: HCT-116
[6] = system: U-251
[7] = system: M14
[8] = system: SK-MEL-5
[9] = system: HT-29
[10] = system: SNB-19
[11] = system: HOP-62
[12] = system: CAKI-1
[13] = system: NCI-H522
[14] = system: NCI-H23
[15] = system: COLO 205
[16] = system: Malme-3M
[17] = system: SK-MEL-28
[18] = system: A498
[19] = system: OVCAR-3
[20] = system: TK-10

Measured: GI50

CC1(C)Oc2ccc3ccc(=O)oc3c2C(O)C1O (stereo unspecified)
inactive: [1] 37.6 µM | [2] 40.6 µM | [3] 31.6 µM | [4] 39.5 µM | [5] 38.8 µM | [6] 38.3 µM | [7] 36.6 µM | [8] 15.9 µM | [9] 28.1 µM | [10] > 100 µM | [11] 36.1 µM | [12] 67.1 µM | [13] 33.7 µM | [14] 44.2 µM | [15] 21.8 µM | [16] 40.3 µM | [17] 37.5 µM | [18] > 100 µM | [19] 37.2 µM

O=[N+]([O-])c1ccc(N2N=C(c3ccc4ccccc4c3O)CC2c2ccc(Cl)cc2)c([N+](=O)[O-])c1 (stereo unspecified)
inactive: [1] 14.5 µM | [2] 45.7 µM | [3] 23.8 µM | [4] 55.1 µM | [5] 28 µM | [6] 25.9 µM | [7] 50.4 µM | [8] 22.2 µM | [9] 33 µM | [11] 41.2 µM | [12] > 100 µM | [13] 22.1 µM | [14] > 100 µM | [15] 29.6 µM | [20] 53.1 µM | [16] 21.5 µM | [17] 41.8 µM | [18] 27.2 µM | [19] 24.8 µM

O=C(NNC(=O)c1ccccc1Cl)c1ccccc1O
inactive: [1] 91 µM | [2] 10.6 µM | [3] 40.4 µM | [4] > 100 µM | [5] 35.8 µM | [6] > 100 µM | [7] 39.7 µM | [8] > 100 µM | [9] 23.8 µM | [10] > 100 µM | [11] 31.8 µM | [12] 41.3 µM | [13] 12.2 µM | [15] 35.2 µM | [20] > 100 µM | [16] 4.24 µM | [17] > 100 µM | [18] > 100 µM | [19] 25.2 µM

COc1cc2oc(-c3ccc4c(c3)OCO4)c(OC)c(=O)c2c(OC)c1OC
inactive: [1] > 100 µM | [2] 27.9 µM | [3] > 100 µM | [4] > 100 µM | [5] > 100 µM | [6] 38.2 µM | [7] > 100 µM | [8] 51.5 µM | [9] > 100 µM | [10] 44.3 µM | [11] 27.4 µM | [12] 19.1 µM | [13] > 100 µM | [14] 39.4 µM | [15] > 100 µM | [20] 32.8 µM | [16] > 100 µM | [17] > 100 µM | [18] 33.7 µM | [19] > 100 µM

COC(=O)c1c2c(cc3c1CC1(Cc4cc5c(cc4C1)CCC5)C3)CCC2
inactive: [1] > 100 µM | [2] > 100 µM | [3] > 100 µM | [4] > 100 µM | [5] > 100 µM | [6] > 100 µM | [7] > 100 µM | [8] > 100 µM | [9] > 100 µM | [10] > 100 µM | [11] > 100 µM | [12] > 100 µM | [13] > 100 µM | [14] > 100 µM | [20] > 100 µM | [16] > 100 µM | [17] > 100 µM | [18] > 100 µM | [19] > 100 µM

Cc1nnc2sc(Cl)nn12
inactive: [1] 8.05 µM | [3] 17.2 µM | [4] 16.8 µM | [5] 8.95 µM | [6] 16.4 µM | [7] 13.6 µM | [8] 12.6 µM | [9] 16.7 µM | [10] 44.8 µM | [11] 38 µM | [12] 21 µM | [13] 10 µM | [14] 17.3 µM | [15] 14.5 µM | [20] 27.7 µM | [16] 22.1 µM | [17] 19.4 µM | [18] 31.3 µM | [19] 19 µM

Cc1cc(S(=O)(=O)Nc2nc(N)n(-c3cnc4ccccc4n3)n2)c(S)cc1Cl
inactive: [1] > 100 µM | [2] 85.3 µM | [3] > 100 µM | [4] > 100 µM | [5] > 100 µM | [6] 41.9 µM | [7] > 100 µM | [8] > 100 µM | [9] > 100 µM | [10] 39.1 µM | [11] 69.5 µM | [12] 95.3 µM | [13] > 100 µM | [15] > 100 µM | [20] > 100 µM | [16] > 100 µM | [17] > 100 µM | [18] 62.2 µM | [19] > 100 µM

O=C1NC(=S)NC(=O)C1C(c1ccc(Cl)cc1)C1C(=O)NC(=S)NC1=O.c1ccncc1
inactive: [1] > 100 µM | [3] > 100 µM | [4] > 100 µM | [5] > 100 µM | [6] > 100 µM | [7] > 100 µM | [8] > 100 µM | [9] > 100 µM | [10] > 100 µM | [11] > 100 µM | [12] > 100 µM | [13] > 100 µM | [14] > 100 µM | [15] > 100 µM | [20] > 100 µM | [16] 60.8 µM | [17] > 100 µM | [18] > 100 µM | [19] > 100 µM

[N-]=[N+]=Nc1c(Cc2ccccc2)c(Cl)nc2ccccc12
inactive: [1] 23.9 µM | [2] 33.6 µM | [3] 25.6 µM | [4] 42 µM | [5] 17.5 µM | [7] 20.8 µM | [8] 15.4 µM | [9] 31.6 µM | [10] 19.1 µM | [11] 22.4 µM | [12] 21.4 µM | [13] 27.5 µM | [14] 28.8 µM | [15] 15.1 µM | [20] 23.8 µM | [16] 21.1 µM | [17] 45.5 µM | [18] 26.2 µM | [19] 12.5 µM

O=C1CCSc2c(cnc3ccccc23)N1
inactive: [1] > 100 µM | [2] > 100 µM | [3] 49.7 µM | [4] 67.3 µM | [5] > 100 µM | [6] > 100 µM | [7] > 100 µM | [8] > 100 µM | [9] > 100 µM | [11] > 100 µM | [12] 56.8 µM | [13] > 100 µM | [14] > 100 µM | [15] > 100 µM | [20] 71.6 µM | [16] > 100 µM | [17] > 100 µM | [18] 32.1 µM | [19] 65.5 µM

COc1ccc2c(c1)C1Oc3ccccc3CC1CO2 (stereo unspecified)
inactive: [1] 52.2 µM | [2] > 100 µM | [3] 46.1 µM | [4] 43.9 µM | [5] 44.7 µM | [6] 91.8 µM | [7] 75.3 µM | [8] 32.6 µM | [9] 42 µM | [10] > 100 µM | [11] > 100 µM | [12] 56.8 µM | [13] 45 µM | [14] > 100 µM | [15] 53.1 µM | [20] 73.1 µM | [16] 54 µM | [18] 34.4 µM | [19] 57.7 µM

Cc1ccc(S(=O)(=O)N/N=c2/sc3ccccc3n2C)cc1
inactive: [1] > 100 µM | [2] > 100 µM | [3] > 100 µM | [4] > 100 µM | [5] > 100 µM | [6] > 100 µM | [8] > 100 µM | [9] > 100 µM | [10] > 100 µM | [11] > 100 µM | [12] > 100 µM | [13] 33.7 µM | [14] > 100 µM | [15] > 100 µM | [20] > 100 µM | [16] > 100 µM | [17] > 100 µM | [18] > 100 µM

Cc1ccc(C(=O)N/N=C(\N=N\c2cccc(Cl)c2)c2ccc(N(CCC#N)CCC#N)cc2C)cc1
inactive: [1] > 100 µM | [3] > 100 µM | [4] > 100 µM | [5] > 100 µM | [6] > 100 µM | [7] > 100 µM | [8] > 100 µM | [9] 90.2 µM | [10] > 100 µM | [11] > 100 µM | [12] > 100 µM | [13] > 100 µM | [14] > 100 µM | [15] > 100 µM | [20] > 100 µM | [16] > 100 µM | [17] > 100 µM | [18] > 100 µM | [19] 93.3 µM

COc1ccc(C(OCC2OC(n3ccc(NC(=O)c4ccccc4)nc3=O)C(O)C2O)(c2ccccc2)c2ccccc2)cc1 (stereo unspecified)
inactive: [1] 2.38 µM | [2] 5.18 µM | [3] 3.09 µM | [4] 2.67 µM | [5] 1.75 µM | [6] 1.92 µM | [7] 2.03 µM | [8] 1.91 µM | [9] 1.53 µM | [10] 3.44 µM | [11] 2.34 µM | [12] 2.93 µM | [13] 2.48 µM | [14] 1.32 µM | [15] 2 µM | [16] 1.89 µM | [17] 2.72 µM | [18] 1.62 µM | [19] 1.69 µM

C=C1c2nc3ccccc3n2C=C(c2ccccc2)N1c1ccc(OC)cc1
inactive: [1] 45.4 µM | [3] 19.1 µM | [4] 13.7 µM | [5] 17.5 µM | [6] 37.8 µM | [7] 13.2 µM | [8] 11.1 µM | [12] 25.5 µM | [13] 1.63 µM | [14] 11.4 µM | [15] 25.4 µM | [20] 12.5 µM | [16] 14.2 µM | [18] > 100 µM | [19] 57.8 µM
